The source of these data is US7521418B2, “Use of a polyene macrolide antifungal agent in combination with a glycopeptide antibacterial agent” (Theravance, Inc., priority 2003, dated 2009).

For this assay, the system named is R. microsporus ATCC 14050. As to the kind of experiment: Checkerboard MIC assay, FICI. As to conditions: combination with Compound 1. Format: cell-based, Rhizopus microsporus. From the text: The following assay was used to determine the minimum inhibitory concentration (MIC) and fractional inhibitory concentration index (FICI) for combinations of an antifungal agent and a glycopeptide antibacterial agent. This assay and methods for calculating FICI are well known in the art. See, for example, Eliopoulos, E. G. and R. Moellering, Jr. “Antimicrobial Combinations” in Antibiotics in Laboratory Medicine, edited by V. Lorian, 4th Ed., Williams & Wilkins, Baltimore, MD, pp. 330-396 (1996); […] et al., Antimicrobial Agents and Chemotherapy 47(4):1416-1418 (2003); or […] et al., Antimicrobial Agents and Chemotherapy 46(10):3323-3326 (2002). […] The MIC of the glycopeptide antibacterial agent determined from this experiment was used in FIC calculations. […]

Regarding `C[C@@H]1[C@H](O)[C@@H](C)/C=C/C=C/C=C/C=C/C=C/C=C/C=C/[C@H](O[C@@H]2O[C@H](C)[C@@H](O)[C@H](N)[C@@H]2O)C[C@@H]2O[C@](O)(C[C@@H](O)C[C@@H](O)[C@H](O)CC[C@@H](O)C[C@@H](O)CC(=O)O[C@H]1C)C[C@H](O)[C@H]2C(=O)O` [Amphotericin B], the FICI was 0.27.
Under `C[C@@H]1[C@H](O)[C@@H](C)/C=C/C=C/CC/C=C/C=C/C=C/C=C/C(O[C@H]2O[C@H](C)[C@@H](O)[C@H](N)[C@@H]2O)CC2O[C@](O)(CC(O)C(O)CCC(O)CC(O)CC(O)CC(=O)O[C@H]1C)CC(O)C2C(=O)O` (some centres unmarked) [Nystatin] stands 0.51.
